Assay results from patent US20080311126A1, “Antisense Oligonucleotides Directed to Ribonucleotide Reducatase R2 and Uses Thereof in Combination Therapies for the Treatment of Cancer” (Genesense Technologies, Inc, priority 2004, published 2008).
Oligonucleotides are written 5' to 3', each unit as a sugar letter and its base; * is a phosphorothioate linkage, no mark a phosphodiester; rarer units and linkages stand in square brackets, end groups in braces. Plain capitals give the bases only. d = 2'-deoxy (DNA)

Experiments:
Hela S3 cells = experiment: Relative colony forming efficiency, lipofectin +/- oligonucleotide 4 hours; assay type: cell-based, human; details: Hela S3 cervix carcinoma cells; averages of 2-8 determinations
How it was run: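 HeLa S3 cells were exposed to phosphorothioate antisense oligonucleotide (0.2 μM unless stated) with lipofectin for 4 h, then grown 7–10 days in 10% FBS medium. Methylene blue-stained colonies were counted and expressed as percent survival relative to lipofectin-only controls.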

[1] = system: T24 bladder cell carcinoma; experiment: Relative colony forming efficiency (Example 17, Table 13); assay type: cell-based, human; details: averages of 2-8 determinations
How it was run: (§1)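 Phosphorothioate antisense oligodeoxynucleotides, at 0.2 μM unless otherwise indicated, were applied with 2.5 μg DOTMA/DOPE (Lipofectin) for 4 h. Colonies stained with methylene blue and scored, with viability sometimes checked by trypan blue exclusion. Values given as % inhibition of colony formation relative to lipofectin-only controls.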

[2] = system: HCT116 colon cell carcinoma; experiment: as above; assay type: cell-based, human; details: averages of 2-8 determinations
How it was run: as §1

[3] = system: H596 lung adenosquamous carcinoma cells; experiment: as above; assay type: cell-based, human; details: averages of 2-8 determinations
How it was run: as §1

[4] = system: Colo320 colon cell adenocarcinoma; experiment: as above; assay type: cell-based, human; details: averages of 2-8 determinations
How it was run: as §1

[5] = system: T-47D breast ductal carcinoma; experiment: as above; assay type: cell-based, human; details: averages of 2-8 determinations
How it was run: as §1

[6] = system: PC-3 prostrate cell adenocarcinoma; experiment: as above; assay type: cell-based, human; details: averages of 2-8 determinations
How it was run: as §1

[7] = system: HepG2 hepatocellular carcinoma; experiment: as above; assay type: cell-based, human; details: averages of 2-8 determinations
How it was run: as §1

[8] = system: MDA-MB-231 breast cell adenocarcinoma; experiment: as above; assay type: cell-based, human; details: averages of 2-8 determinations
How it was run: as §1

A549 lung cell carcinoma = experiment: as above; assay type: cell-based, human; details: averages of 2-8 determinations
How it was run: as §1

[9] = system: MDA PaCa-2 pancreatic cell carcinoma; experiment: as above; assay type: cell-based, human; details: MIA PaCa-2 pancreatic cell carcinoma; averages of 2-8 determinations
How it was run: as §1

[10] = system: DU145 human prostatic cancer cells; experiment: DU145 prostatic tumour xenograft in SCID mice; assay type: in vivo; details: for Tumour weight as % of saline control: DU145 (prostatic), Mouse SCID
Method: In both experiments, DU145 human prostatic cancer cells (1×10^7 cells in 100 μl of PBS) were subcutaneously injected into the right flank of 6-7 weeks old male SCID mice. After the size of tumour reached an approximate volume of 50 mm^3, 13 FIG. 15A) or 11 (FIG. 15B) days post tumour cell injection, SEQ ID NO:1 was administered by bolus infusion into the tail vein every other day at 10 mg/kg 15 times (FIG. 15A) or 14 times (FIG. 15B), respectively. Control animals received saline alone for the same period. Antitumour effect of SEQ ID NO:1 was further compared to that of mitoxantrone (Novantrone®) alone or in combination. Mitoxantrone was administered intravenously once at the beginning of the treatments at a dose of 2 mg/kg (FIG. 15A) or once a week for four weeks at a reduced dose of 0.8 mg/kg (FIG. 15B). All treatments were stopped at day 42 (FIG. 15A) or 38 (FIG. 15B); respectively. A day after the last treatment, tumours were excised from the animals and their weights were measured.

[11] = system: PC-3 human prostatic cancer cells; experiment: PC-3 prostatic tumour xenograft in SCID mice; assay type: in vivo
Method: In both experiments, PC-3 human prostatic cancer cells (1×10^7 cells in 100 μl of PBS) were subcutaneously injected into the right flank of 6-7 weeks old male SCID mice. After the size of tumour reached an approximate volume of 50 mm^3, 14 days post tumour cell injection, SEQ ID NO:1 was administered by bolus infusion into the tail vein every other day at 10 mg/kg 18 times (FIG. 14A) or 17 times (FIG. 14B), respectively. Control animals received saline alone for the same period. Antitumour effect of SEQ ID NO:1 was further compared to that of mitoxantrone (Novantrone®) alone or in combination. Mitoxantrone was administered intravenously once at the beginning of the treatments at a dose of 2 mg/kg (FIG. 14A) or once a week for four weeks at a reduced dose of 0.8 mg/kg (FIG. 14B). All treatments were stopped at day 50 (FIG. 14A) or 48 (FIG. 14B), respectively. A day after the last treatment, tumours were excised from the animals and their weights were measured.

[12] = system: A2058 human melanoma cells; experiment: A2058 melanoma xenograft in CD-1 nude mice; assay type: in vivo; details: A2058 (melanoma); Mouse CD-1
Method: A2058 human melanoma cells 1×10^7 cells in 100 μl of PBS) were subcutaneously injected into the right flank of 6-7 week old female CD-1 nude mice. A2058 is a metastatic melanoma cell line. After the size of tumour reached an approximate volume of 100 mm^3, 6 days post tumour cell injection, SEQ ID NO:1 was administered by bolus infusion into the tail vein every other day at 10 mg/kg. Control animals received saline alone for the same period. Antitumour effect of SEQ ID NO:1 was further compared to that of dacarbazine (DTIC) alone or that of SEQ ID NO:1 in combination with DTIC. DTIC was administered intravenously for 5 days in a row from day 6-10 at a dose of 80 mg/kg in 100 μl saline. All treatments were stopped at day 24. A day after the last treatment, tumours were excised from the animals and their weights were measured.

[13] = system: HT-29 human colon cancer cells; experiment: HT-29 colon tumour xenograft in CD-1 nude mice; assay type: in vivo; details: HT-29 (colon); Mouse CD-1; CPT-11 study
Method: HT-29 human colon cancer cells (3×10^6 cells in 100 μl of PBS) were subcutaneously injected into the right flank of 6-7 weeks old female CD-1 nude mice. After the size of tumour reached an approximate volume of 50 mm^3, 4 days post tumour cell injection, mitomycin C was administered by bolus infusion into the tail vein at days 4, 11 and 18 with a dose of 3.5 mg/kg/week. Antitumour effect of mitomycin C was further compared to that of SEQ ID NO:1 in combination with mitomycin C. SEQ ID NO:1 was administered by bolus infusion into the tail vein every day at 6 mg/kg and mitomycin C was administered intravenously at days 4, 11 and 18 with a dose of 3.5 mg/kg/week, one hour after the treatments with SEQ ID NO:1. Control animals received saline alone for the same period as SEQ ID NO:1. All treatments were stopped at day 22. A day after the last treatment, tumours were excised from the animals and their weights were measured.
HT-29 human colon cancer cells (3×10^6 cells in 100 μl of PBS) were subcutaneously injected into the right flank of 5-6 week old female CD-1 nude mice. After the size of tumour reached an approximate volume of 100 mm^3, 7 days post tumour cell injection, SEQ ID NO:1 was administered by bolus infusion into the tail vein every other day at 10 mg/kg. Control animals received saline alone for the same period. Antitumour effect of SEQ ID NO:1 was further compared to that of CPT-11 alone or that of SEQ ID NO:1 in combination with CPT-11. CPT-11 was administered intraperitoneally for 5 days in a row from […] with a dose of 20 mg/kg in 100 μl saline. All treatments were stopped at day 32. A day after the last treatment, tumours were excised from the animals and their weights were measured.
HT-29 human colon cancer cells (3×10^6 cells in 100 μl of PBS) were subcutaneously injected into the right flank of 6-7 week old female CD-1 nude mice. Treatments started at day 5 post tumour cell injection, SEQ ID NO:1 and 5-FU were administered as outlined below: • Groups and treatment: • Group 1. Saline treated group: saline:0.1 ml/2 days, i.v.; • Group 2. SEQ ID NO:1 treated group: 10 mg/kg/2 days in 100 μL saline, i.v.; • Group 3. 5-FU treated group:13 mg/kg/5 days/week (one week on and one week off), i.v.; • Group 4. SEQ ID NO:1 plus 5-FU treated group.
HT-29 human colon cancer cells (3×10^6 cells in 100 μl of PBS) were subcutaneously injected into the right flank of 5-6 week old female CD-1 nude mice. Treatments started 4 days post tumour cell injection, SEQ ID NO: 1 and Capecitabine were administered as outlined below: • Group and Treatment: • Group 1: treated with 0.2 ml vehicle solution for capecitabine, o.p.; • Group 2: treated with 0.1 ml saline, i.v.; • Group 3: treated with 359 mg/kg/day×5/w Capecitabine in 0.2 ml vehicle solution, o.p.; • Group 4: treated with 10 mg/kg/2 days SEQ ID NO:1 in 0.1 ml saline i.v.; • Group 5: treated with 10 mg/kg/2 days SEQ ID NO:1 in 0.1 ml saline, i.v. plus 359 mg/kg/day×5/w capecitabine in 0.2 ml vehicle solution, o.p.

[14] = system: LS513 multi-drug resistant colon carcinoma cells; experiment: LS513 multi-drug resistant colon carcinoma xenograft in SCID mice; assay type: in vivo, human; details: LS513 (colon) multi-drug resistant (CPT-11 sensitive); SCID
Method: LSS13 multi-drug resistant colon carcinoma cells (1×10^7 cells in 100 μl of PBS) were subcutaneously injected into the right flank of 6-7 weeks old female SCID mice. After the size of tumour reached an approximate volume of […], 8 days post tumour cell injection, SEQ ID NO:1 was administered by bolus infusion into the tail vein every other day at 10 mg/kg. Control animals received saline alone for the same period. Antitumour effect of SEQ ID NO:1 was further compared to that of CPT-11 alone or in combination. CPT-11 was administered i.p. for 5 days at a dose of 20 mg/kg/day. Antitumour activities were estimated by the inhibition of tumour volume, which was measured with caliper. Each point represents mean tumour volume calculated from 10 animals per experimental group. Tumour weights were measured after animals were sacrificed at the end of the treatment. These cells are not resistant to CPT-11 which was used as a positive control.

| Molecule | Reduced relative colony forming efficiency, Hela S3 (% inhibition of colony forming ability) (Hela S3 cells) [%] | Reduced relative colony forming efficiency, HCT116 (% inhibition of colony forming ability) [2] [%] | Reduced relative colony forming efficiency, 11596 (% inhibition of colony forming ability) [3] [%] | Reduced relative colony forming efficiency, Co1o320 (% inhibition of colony forming ability) [4] [%] | Reduced relative colony forming efficiency, T-47D (% inhibition of colony forming ability) [5] [%] | Reduced relative colony forming efficiency, PC-3 (% inhibition of colony forming ability) [6] [%] | Reduced relative colony forming efficiency, HepG2 (% inhibition of colony forming ability) [7] [%] | Reduced relative colony forming efficiency, MDA-MB-231 (% inhibition of colony forming ability) [8] [%] | Reduced relative colony forming efficiency, A549 (% inhibition of colony forming ability) (A549 lung cell carcinoma) [%] | Reduced relative colony forming efficiency, MIA PaCa-2 (% inhibition of colony forming ability) [9] [%] | other results |
| --- | --- | --- | --- | --- | --- | --- | --- | --- | --- | --- | --- |
| CCTTGCCCTGAGAGATTCCT (antisense dC*dC*dT*dT*dG*dC*dC*dC*dT*dG*dA*dG*dA*dG*dA*dT*dT*dC*dC*dT) [AS-II-2083-20] | 84.58 | 87.46 | 82.98 | 87.28 | 89.32 | 32.03 | 93.64 | 68.88 | 90.65 | 71 | Reduced relative colony forming efficiency, T24 (% inhibition of colony forming ability) [1]: 82.43%; Reduced relative colony forming efficiency, T24 (% inhibition of colony forming ability) ([1]; listed as AS-II-2083-20 *): 9.52%; Reduced relative colony forming efficiency, HCT116 (% inhibition of colony forming ability) ([2]; listed as AS-II-2083-20 *): 41.16%; Reduced relative colony forming efficiency, 11596 (% inhibition of colony forming ability) ([3]; listed as AS-II-2083-20 *): 49.37%; Reduced relative colony forming efficiency, Co1o320 (% inhibition of colony forming ability) ([4]; listed as AS-II-2083-20 *): 52.54%; Reduced relative colony forming efficiency, T-47D (% inhibition of colony forming ability) ([5]; listed as AS-II-2083-20 *): 43.61%; Reduced relative colony forming efficiency, HepG2 (% inhibition of colony forming ability) ([7]; listed as AS-II-2083-20 *): 46.14%; Reduced relative colony forming efficiency, A549 (% inhibition of colony forming ability) (A549 lung cell carcinoma; listed as AS-II-2083-20 *): 31.73% |
| O=C1c2c(O)ccc(O)c2C(=O)c2c(NCCNCCO)ccc(NCCNCCO)c21 [Novantrone, mitoxantrone] |  |  |  |  |  |  |  |  |  |  | Tumour weight as % of saline control ([10]; first of two value columns (two independent experiments)): 40%; Tumour weight as % of saline control ([10]; second of two value columns (two independent experiments)): 60%; antitumour effect (tumour weight) ([10]; FIG. 15B, SEQ ID NO:1 10 mg/kg 14 times, mitoxantrone 0.8 mg/kg once a week for four weeks): significant delay of tumour growth; antitumour effect (tumour weight) ([11]; FIG. 14B, SEQ ID NO:1 10 mg/kg 17 times, mitoxantrone 0.8 mg/kg once a week for four weeks): significant delay of tumour growth; Tumour weight as % of saline control ([11]; PC-3 (prostatic), Mouse SCID): 57% |
| CN(C)/N=N/c1[nH]cnc1C(N)=O [DTIC, dacarbazine, reference compound] |  |  |  |  |  |  |  |  |  |  | Tumour weight as % of saline control [12]: 68% |
| GAGCAGCCAGGACAGGACGG (antisense dG*dA*dG*dC*dA*dG*dC*dC*dA*dG*dG*dA*dC*dA*dG*dG*dA*dC*dG*dG) [AS-II-151-20] | 66.75 | 78.09 | 69.12 | 90.12 | 95.39 | 35.68 | 89.53 | 41.64 | 84.28 | 75.38 |  |
| CCc1c2c(nc3ccc(OC(=O)N4CCC(N5CCCCC5)CC4)cc13)-c1cc3c(c(=O)n1C2)COC(=O)[C@]3(O)CC [CPT-11, Irinotecan, reference compound] |  |  |  |  |  |  |  |  |  |  | Tumour weight as % of saline control [13]: 36%; Tumour weight as % of saline control [14]: 47% |
